Measurements: patent publication US9968582B2, “Use of a benzoate containing composition in urea cycle disorders and neurodegenerative disorders” (Rush University Medical Center, priority 2014, dated 2018)

How the values were obtained:
IL-1β = test: Expression of IL-1β in spinal cord of EAE mice (RT-PCR); assay type: in vivo; conditions: FIG. 4D-F
Protocol: Total RNA was isolated from splenic T cells and spinal cord by using the RNeasy mini kit (Qiagen, Valencia, Calif.) and from spleen and cerebellum by using the Ultraspec-II RNA reagent (Biotecx laboratories, Inc, Houston, Tex.) following manufacturer's protocol. To remove any contaminating genomic DNA, total RNA was digested with DNase. Semi-quantitative RT-PCR was carried out using a RT-PCR kit from Clonetech (Mountain View, Calif.). Briefly, 1 μg of total RNA was reverse transcribed using oligo(dT)12-18 as primer and MMLV reverse transcriptase (Clontech) in a 20 μL reaction mixture. The resulting cDNA was appropriately-diluted, and diluted cDNA was amplified using Titanium Taq DNA polymerase and following primers. Amplified products were electrophoresed on a 1.8% agarose gels and visualized by ethidium bromide staining.
The relative expression of each gene with respect to GAPDH was measured after scanning the bands with a Fluor Chem 8800 Imaging System (Alpha Innotech, San Leandro, Calif.).
Real-time PCR analysis was performed using the ABI-Prism7700 sequence detection system (Applied Biosystems, Foster City, Calif.). […] Data were processed by the ABI Sequence Detection System 1.6 software and analyzed by ANOVA. […]

female SJL/J mice = test: Adoptively-transferred RR-EAE, clinical symptoms; assay type: in vivo; conditions: for clinical symptoms (mean clinical score): FIG. 1A
DJ-1 = test: MPTP mouse model of PD, Western blot of DJ-1 in the nigra; assay type: in vivo, mice; conditions: oral GTB in MPTP-intoxicated mice, dose-dependent; FIG. 9A-B
Protocol: Six- to eight-week old C57BL/6 mice were purchased from Harlan (Indianapolis, Ind.). For acute MPTP intoxication, mice received four intraperitoneal (i.p.) injections of MPTP-HCl (18 mg/kg of free base; Sigma Chemical Co., St. Louis, Mo.) in saline at 2-h intervals. Control animals received only saline.
GTB was mixed in 0.5% methylcellulose (MC) and from 3 h after the last injection of MPTP, mice were gavaged 100 μL GTB-mixed MC once daily using gavage needle. Therefore, control MPTP mice received only MC as vehicle.
Immunoblot analysis for DJ-1 and TH was carried out. Briefly, cell homogenates were electrophoresed, proteins were transferred onto a nitrocellulose membrane, and bands were visualized with an Odyssey infrared scanner after immunolabeling with respective primary antibodies followed by infra-red fluorophore-tagged secondary antibody (Invitrogen).
Upregulation and/or maintenance of PD-related beneficial protein such as DJ-1 in the nigra during neurodegenerative insults may have therapeutic efficacy in PD.

[1] = tested on: blood-brain barrier and blood-spinal cord barrier; test: Integrity of BBB and BSB, infrared dye (Alexa-680) entry into CNS of EAE mice; assay type: in vivo
Source text: BBB and BSB are membranic structures that act primarily to protect the brain and the spinal cord, respectively from chemicals in the blood, while still allowing some essential molecules to enter. It is known that during active MS and EAE, BBB and BSB break down in a section of the brain and spinal cord, respectively due to widespread inflammation thereby allowing different blood molecules and toxins enter into the CNS. Therefore, the inventor investigated if GTB treatment modulated the integrity of BBB and BSB. The inventor injected an infrared dye (Alexa-680) via tail-vein and 2 h after the injection, live mice were scanned in an Odyssey infra-red scanner. As evidenced from FIG. 3A (first lane), infra-red signals were not visible on areas over the brain and the spinal cord in control HBSS-injected mice. […] In FIG. 3C, the top row relates to the frontal cortex, the middle row relates to the midbrain, and the last row relates to the cerebellum. In FIG. 3D, the first column relates to the control, the second column relates to EAE, the third column relates to EAE+GTB, the fourth column relates to EAE+Vehicle, and the y-axis is density of infrared signal.

[2] = tested on: female PLP-TCR transgenic (Tg) mice; test: Relapsing EAE in PLP-TCR transgenic mice, clinical symptoms; assay type: in vivo; conditions: FIG. 1B
[3] = tested on: Foxp3+CD4+ population of T cells; test: Flow cytometry of Tregs in splenocytes of EAE mice; assay type: in vivo; conditions: FIG. 7A-D
Protocol: Two-color flow cytometry was performed as described previously. Briefly, 1×10^6 lymph node cells (LNC) or splenocytes suspended in flow staining buffer were incubated at 4° C. with appropriately diluted FITC-labeled Ab to CD4 for 30 min, washed, and re-suspended in fixation and permeabilization solution. Following incubation in dark for 30 min, cells were washed, blocked with test Fc block (anti-mouse CD16/32) in permeabilization buffer, and subsequently incubated with appropriately diluted PE-labeled Abs to Foxp3 at 4° C. in the dark. After incubation, the cell suspension was centrifuged, washed thrice, and re-suspended in flow staining buffer. The cells then were analyzed through FACS (BD Biosciences, San Jose, Calif.). Cells were gated based on morphological characteristics. Apoptotic and necrotic cells were not accepted for FACS analysis.
Since TGF-β is involved in the differentiation of non-Tregs into Tregs, the inventor monitored the status of Tregs in EAE mice. A major population of Tregs is characterized by a transcription factor FoxP3. During autoimmune insults, Tregs become both numerically and functionally defective. Therefore, as expected, the inventor observed significant reduction in Foxp3+CD4+ population of T cells in EAE splenocytes as evident from FACS dot plot (FIG. 7A-B). […]

O=C(OCC(COC(=O)c1ccccc1)OC(=O)c1ccccc1)c1ccccc1 [GTB, glyceryl tribenzoate]
expression of IL-1β in the spinal cord (IL-1β): dramatically reduced the expression
clinical symptoms (mean clinical score) (female SJL/J mice; GTB 25 mg/kg body wt/d by gavage once daily from 8 dpt): significantly inhibited clinical symptoms
clinical symptoms (mean clinical score) (female SJL/J mice; GTB 50 mg/kg body wt/d by gavage from 8 dpt, acute and chronic phases): dramatic inhibition of clinical symptoms
clinical symptoms (mean clinical score) (female SJL/J mice; GTB 100 mg/kg body wt/d by gavage from 8 dpt): less potent than either 50 mg/kg body wt/d
clinical symptoms of adoptively-transferred RR-EAE (female SJL/J mice; GTB treatment, TGF-β blocking experiment, FIG. 8): ameliorated clinical symptoms
dose that significantly suppressed clinical symptoms of EAE (female SJL/J mice; dose-dependent study, oral GTB): ≥ 25 mg/kg body wt/d
level of DJ-1 in the nigra (DJ-1): protected DJ-1 in the nigra
entry of infra-red dye into the CNS, live mice ([1]; scan 2 h after tail-vein injection of Alexa-680, FIG. 3A): strongly inhibited the entry of infra-red dye into the CNS
entry of infra-red dye into spinal cord and parts of the brain, dissected tissue ([1]; spinal cord, frontal cortex, midbrain, cerebellum, FIG. 3B-D): markedly attenuated the entry of infra-red dye
dose of maximum inhibition of EAE ([2]; GTB from 8 dpi): 50 mg/kg body wt/d
clinical symptoms (mean clinical score) ([2]; different doses of GTB from 8 dpi, 10 μg/mouse PLP139-151): inhibitory effect of GTB on the clinical symptoms was clearly observed
Foxp3+CD4+ population in splenocytes [3]: led to the increase in Foxp3+CD4+ population
